Results as given in patent US20200346957A1, “BIOFILM […] TO MICROBIAL DESTRUCTION” (DRIPPING WET WATER, INC., priority 2019, published 2020).

System: biofilm within an infected cut
Experiment: Chlorine dioxide disrupts biofilm within an infected cut (Example 4)
Format: in vivo
Details: retreated every 12 hours, after 36 hours
Procedure: FIGS. 3A, 3B, 3C, and 3D are photographs that show the progression of an infected cut at 0 hours, 12 hours, 24 hours, and 36 hours, respectively.
FIGS. 4A, 4B, 4C, and 4D are photographs that show the progression of an infected cut at 0 hours, 12 hours, 24 hours, and 36 hours, respectively.
Chlorine Dioxide and CURAD Antibacterial Bandages (benzalkonium chloride) are used in this example. The first of two infected cuts is exposed to 100 ppm of chlorine dioxide for 1 minute before the benzalkonium chloride bandage is applied. The second infected cut is not exposed to chlorine dioxide before the benzalkonium chloride bandage is applied. Both cuts are retreated every 12 hours. […] FIG. 4 illustrates that after 36 hours the second cut's infection, not treated with chlorine dioxide, actually increases.

## [O][Cl+][O-] [chlorine dioxide]
Infected cut exposed to 100 ppm chlorine dioxide for 1 minute before benzalkonium chloride bandage
  progress of the cut's infection (FIG. 3): significantly reduced

## benzalkonium chloride
Infected cut with benzalkonium chloride bandage only, no chlorine dioxide
  progress of the cut's infection (FIG. 4): no apparent effect
